US20260223846A1, “PEPTIDE IN COMBINATION WITH FUNGICIDE COMPOSITIONS FOR FUNGAL CONTROL AND RELATED METHODS” (priority 2023, published 2026)
Read-outs that look alike come from different tables or passages of the source. Where no end group is shown, it is not given here.

What was measured:
[1] = tested on: Fusarium proliferatum; test: Co-incubation (oCelloScope) assay, F. proliferatum conidial germination; assay type: cell-based
[2] = tested on: Botrytis cinerea b05.10; assay type: cell-based
[3] = tested on: Pseudoperonospora cubensis; test: Pseudoperonospora cubensis (cucurbit downy mildew) leaf disk assay; assay type: in vivo; settings: for Summary of CGI factor spectrum of activity: Downy Mildew
[4] = tested on: Fusarium graminearum (Gibberella zeae); assay type: cell-based; settings: for Inhibition: 50 micromolar; for Summary of CGI factor spectrum of activity: Fusarium graminearum
[5] = tested on: Fusarium oxysporum f. sp. lycopersici (Saccardo) Snyder et Hansen CBS 167.30; test: Resazurin plate co-incubation assay, F. oxysporum; assay type: cell-based; settings: for Inhibition: 50 micromolar; for Summary of CGI factor spectrum of activity: Fusarium oxysporum
[6] = tested on: Botrytis (Strain B05.10); test: Botrytis inhibition assay (resazurin assay); assay type: cell-based; settings: for inhibition at 1 µM: tested alone at 1 μM
[7] = tested alone at 0.25 uM, 24 hours at 23° C.
[8] = tested alone at 0.5 uM, 24 hours at 23° C.
[9] = tested alone at 1 uM, 24 hours at 23° C.
[10] = 10 micromolar, 24 hours at 20° C.
[11] = 100 micromolar, 24 hours at 20° C.
[12] = Botrytis cinerea, at least one concentration tested
[13] = tested alone at 0.02 ug/ml, 24 hours at 23° C.
[14] = tested alone at 0.2 ug/ml, 24 hours at 23° C.
[15] = tested alone at 2 ug/ml, 24 hours at 23° C.
[16] = read-out: Percent Inhibition EXP23002594
[17] = read-out: Percent Inhibition EXP23002662
[18] = tested alone at 5 uM, 24 hours at 23° C.

WCTWKGQPCW [Pep105]
Inhibition of conidial germination [1]: No and Yes
Inhibition [2]: No
Summary of CGI factor spectrum of activity [2]: No

WHWLQLKPGQPMYWHWLQLKPGQPMY (listed as Saccharomyces cerevisiae) [Pep301, S. cerevisiae Alpha-pheromone homodimer]
Inhibition of conidial germination [1, 7]: No
Inhibition of conidial germination [1, 8]: No
Inhibition of conidial germination [1, 9]: Yes
Inhibition (reduced disease severity of leaf discs) ([3]; 20 micromolar): reduced the disease severity and Yes
Summary of CGI factor spectrum of activity [3]: Yes
Inhibition [4]: Yes
Summary of CGI factor spectrum of activity [4]: Yes
Inhibition [2, 10]: No
Inhibition [2, 11]: active and Yes
Summary of CGI factor spectrum of activity [2, 12]: completely inhibited conidial germination and Yes
Inhibition [5]: Yes
Summary of CGI factor spectrum of activity [5]: Yes

CC1(C)CCC(Cc2ccc(Cl)cc2)C1(O)Cn1cncn1 (stereo not shown) [Metconazole]
Inhibition of conidial germination [1, 13]: did not show any inhibition and No
Inhibition of conidial germination [1, 14]: No
Inhibition of conidial germination [1, 15]: inhibited fungal growth and Yes

WCGRPGQPC (REGION 1..9: note = Botrytis spp.) [Pep106, B. cinerea Alpha-pheromone]
Inhibition [2, 10]: No
Inhibition [2, 11]: No
Summary of CGI factor spectrum of activity [2, 12]: No

WHWLQLKPGQPMY (listed as Saccharomyces cerevisiae) [Pep107, S. cerevisiae Alpha-pheromone]
Inhibition (reduced disease severity of leaf discs) ([3]; 200 micromolar): reduced the disease severity and Yes
Summary of CGI factor spectrum of activity [3]: Yes
Inhibition [4]: did not show any inhibition and No
Summary of CGI factor spectrum of activity [4]: No
Inhibition [2, 10]: No
Inhibition [2, 11]: moderate inhibition and Some
Summary of CGI factor spectrum of activity [2, 12]: Yes
Inhibition [5]: Yes
Summary of CGI factor spectrum of activity [5]: Yes

CON=C(C(=O)OC)c1ccccc1CON=C(C)c1cccc(C(F)(F)F)c1 [Trifloxystrobin]
Inhibition of conidial germination [1, 14]: neither boscalid nor trifloxystrobin showed any inhibition and No
Inhibition of conidial germination [1, 15]: neither boscalid nor trifloxystrobin showed any inhibition and No

Cc1cc(C2CC2)nc(Nc2ccccc2)n1 [Cyprodinil]
inhibition at 50 µM [6, 16]: 73.6%
inhibition at 50 µM [6, 17]: 53.7%
inhibition at 100 µM [6, 17]: 74.8%

C[C@@H]1C/C=C/C=C/C=C/C=C/[C@H](O[C@@H]2O[C@H](C)[C@@H](O)[C@H](N)[C@@H]2O)C[C@@H]2O[C@](O)(C[C@@H](O)C[C@H]3O[C@@H]3/C=C/C(=O)O1)C[C@H](O)[C@H]2C(=O)O [Natamycin]
Inhibition of conidial germination [1, 18]: did not show any inhibition
Inhibition of conidial germination ([1]; tested alone at 5 ug/ml, 24 hours at 23° C.): No
Inhibition of conidial germination ([1]; tested alone at 10 ug/ml, 24 hours at 23° C.): No
Inhibition of conidial germination ([1]; tested alone at 100 ug/ml, 24 hours at 23° C.): inhibited fungal growth and Yes
inhibition at 100 µM ([6]; Table 20, tested alone at 100 μM (positive control), read-out: Percent Inhibition (Median)): 101%
inhibition at 100 µM ([6]; tested alone at 100 μM (positive control 1), read-out: Percent Inhibition EXP23002534): 100%
inhibition at 100 µM ([6]; tested alone at 100 μM (positive control 1), read-out: Percent Inhibition EXP23002594): 101%
inhibition at 100 µM ([6]; tested alone at 100 μM, read-out: Percent Inhibition EXP23002662): 101%

N#Cc1c[nH]cc1-c1cccc2c1OC(F)(F)O2 [Fludioxonil]
Inhibition of conidial germination [1, 13]: did not show any inhibition and No
Inhibition of conidial germination [1, 14]: No
Inhibition of conidial germination [1, 15]: Yes

CC[C@H](C)C[C@H](C)CCCCCCCCC(=O)N[C@H]1C[C@@H](O)[C@@H](NCCN)NC(=O)[C@@H]2[C@@H](O)CCN2C(=O)[C@H]([C@H](O)CCN)NC(=O)[C@H]([C@H](O)[C@@H](O)c2ccc(O)cc2)NC(=O)[C@@H]2C[C@@H](O)CN2C(=O)[C@H]([C@@H](C)O)NC1=O [Caspofungin]
inhibition at 1 µM ([6]; read-out: Percent Inhibition EXP23002534): 1.08%
inhibition at 1 µM [6, 16]: 98.7%
inhibition at 1 µM [6, 17]: 3.1%

O=C(Nc1ccccc1-c1ccc(Cl)cc1)c1cccnc1Cl [Boscalid]
Inhibition of conidial germination [1, 14]: neither boscalid nor trifloxystrobin showed any inhibition and No
Inhibition of conidial germination [1, 15]: neither boscalid nor trifloxystrobin showed any inhibition and no inhibition and No

RRRRRRRR [Pep462, Octaarginine (R8) cell-penetrating peptide (non-CGI peptide CONTROL)]
Inhibition of conidial germination ([1]; tested alone at 0.125 uM, 24 hours at 23° C.): No
Inhibition of conidial germination [1, 7]: No
Inhibition of conidial germination [1, 8]: No
Inhibition of conidial germination [1, 9]: effective and Yes
Inhibition (reduced disease severity of leaf discs) ([3]; 20 micromolar): did not and No
Summary of CGI factor spectrum of activity [3]: No
Inhibition [4]: Yes
Summary of CGI factor spectrum of activity [4]: Yes
Inhibition [2, 10]: inhibited and Yes
Inhibition [2, 11]: inhibited and Yes
Summary of CGI factor spectrum of activity [2, 12]: completely inhibited conidial germination and Yes
Inhibition [5]: Yes
Summary of CGI factor spectrum of activity [5]: Yes

Drosomycin (DCLSGRYKGPCAVWDNETCRRVCKEEGRSSGHCSPSLKCWCEGC; disulfide (positions not given here); not fully specified; ends not checked; also: four intramolecular disulfide bridges, pairing not given here; UniProt P41964 27-70, looked up) [44-residue antifungal peptide with four intramolecular disulfide bridges, heterologously expressed in E. coli]
Inhibition of conidial germination [1, 8]: did not show any inhibition and No
Inhibition of conidial germination [1, 9]: did not show any inhibition and No
Inhibition of conidial germination ([1]; tested alone at 8 uM, 24 hours at 23° C.): Yes

WHWLQLKPGQPMYGGGGWHWLQLKPGQPMY (listed as Saccharomyces cerevisiae) [Pep302, S. cerevisiae Alpha-pheromone homodimer with GGGG linker]
Inhibition of conidial germination [1, 7]: No
Inhibition of conidial germination [1, 8]: No
Inhibition of conidial germination [1, 9]: Yes

N#Cc1c[nH]cc1-c1cccc(Cl)c1Cl [Fenpiclonil]
Inhibition of conidial germination [1, 18]: did not inhibit conidial germination and No
Inhibition of conidial germination ([1]; tested alone at 10 uM, 24 hours at 23° C.): No
Inhibition of conidial germination ([1]; tested alone at 50 uM, 24 hours at 23° C.): Yes
